Experimental data from patent US6537527B1, “Skin lightening compositions” (Children's Hospital Medical Center, priority 1994, dated 2003).

Assay: Stability under selective acid hydrolysis in pH 5 buffer
Assay type: physicochemical
Conditions: pH 5 buffer solution
Description: To a stirred suspension comprising the benzyl protected intermediate (1.0 equiv.), 5% Pd/C (0.07 equiv.) and methanol is added 55% hydrazine hydrate (˜20 equiv.). The reaction mixture is slowly heated and maintained at reflux under an inert atmosphere until TLC analysis indicates complete consumption of starting material. Reaction mixture is cooled to room temperature, filtered through celite to remove catalyst and volatiles removed in-vacuo. Residue is then subjected to low pressure column chromatography with 7:3 hexane:ethyl acetate as eluent. Composition and purity of isolated white solid as determined by ^1H and ^13C NMR is consistent with the brominated compound shown.

SMILES: Oc1ccc(O[C@H]2OCCC[C@@H]2Br)cc1 [Iii]
- stability to acid hydrolysis: stable under these conditions
